According to patent US20190225643A1, “NOVEL NUCLEOSIDE ANALOGS AND USE THEREOF IN THERAPEUTIC TREATMENT” (CORNELL UNIVERSITY, priority 2016, published 2019):

Columns and labels:
[1] = system: CAG-luc multiple myeloma xenograft; experiment: Disseminated multiple myeloma xenograft model; format: in vivo, mouse
Experimental: For the disseminated multiple myeloma xenograft model, CAG cells were kindly provided by Dr. Malcolm Moore lab at MSKCC. 1×10^7 of CAG cells stably expressing the HSV-TK-eGFP-luciferase fusion protein were injected intravenously into NOD/SCID (NOD/LTSZPrko/J, the Jackson Laboratory Stock# 001303). Eight days after tumor induction, mice were randomized into control and treated cohorts and treated intraperitoneally with either PBS 0.05% tween 80 (vehicle) or 200 mg/kg of 6-ETI daily for 9 days. Tumor mass or bioluminescence (photons/s/cm^2/steradian) was evaluated by imaging the mice using IVIS Imaging system. Statistical analysis was done using a two-tailed, unpaired Student's t-test using GraphPad prism.

KSHV+ PEL cell lines = experiment: CellTiter-Glo viability assay, KSHV+ cell line panel; format: cell-based, human
Experimental: Cell viability assays were performed by plating log-phase cells in RPMI complete media with 20% FBS at 1*10^5 cells/mL, with concentrations of 6-ETI or phospho-6-ETI ranging from 0.1 nM to 100 μM. ATP content at 24, 48 and 72 hours post-treatment was measured by the CellTiter-Glo kit (Promega, Madison, Wis.), or by Trypan blue assay as indicated. The LC50 for 6-ETI in each cell line was determined using online EC50 software at changbioscience.com or using GraphPad Prism to determine the LC50 for 6-ETI, phospho-6-ETI and nucleoside analogs in MM cell lines and primary MM patient samples.
KSHV+ primary effusion lymphoma (PEL) cell lines (BC1, BC2, BC3, BC5, BCBL1, BCP1), EBV+ lymphoblastoid cell line LCL9001, EBI+ diffuse large B-cell lymphomas (DLBCL) with immunoblastic features (IBL1, IBL4), and EBV+ effusion DLBCL BCKN1 were cultured in RPMI-1640 medium (Invitrogen) supplemented with 50 μg/mL Gentamicin (Sigma-Aldrich) and 10% or 20% heat-inactivated fetal bovine serum, respectively. Uninfected DLBCL cell lines (Ly2, Ly7) were cultured in IMDM (Invitrogen) supplemented with 50 μg/mL Gentamicin and 10% FBS. Multiple myeloma (MM) cell lines U266 and MM1S were cultured in RPMI supplemented with 15%FBS and 50 μg/mL Gentamicin, while JJN3 was cultured in 40% IMDM/40% DMEM plus 20% FBS supplemented with 50 μg/mL Gentamicin. Hodgkin's lymphoma (L428, L1236) and Burkitt's lymphoma cell lines (BJAB, Namalwa)were maintained in RPMI-1640 supplemented with Gentamicin and 10% FBS. All of the PEL cell lines and IBL1 were established in our laboratory from lymphomatous effusions except BCBL1, which was obtained from the AIDS and Cancer Specimen Bank. Burkitt lymphoma cell lines Namalwa and BJAB as well as the multiple myeloma cell line U266 were obtained from the American Type Culture Collection (ATCC). JJN3 cell line and Hodgkin cell lines (L428, L1236) were obtained from DSMZ. DLBCL cell lines LY2 and LY7 were provided by Riccardo Dana-Rivera (Columbia University), MM1S cell line was provided by Dr. Giorgio Inghiraini lab at Weill Cornell Medicine. […]

BC3 cells = experiment: Annexin V/7-AAD cell death flow cytometry; format: cell-based, human; conditions: 500 nM or 5 μM, 48 hours; versus IBL1
Experimental: BC3 and IBL1 cells in the exponential phase were seeded at a cell density of 0.2 million cells/ml. Cells were treated with 0.1% DMSO or with 6-ETI at a final concentration of 500 nM or 5 μM for 24, 48 or 72 hrs. Post-treatment, cells were harvested and stained with 2.54 of Alexa Fluor 647 Annexin V conjugate (Life technologies) and 2.5 fit of 7-AAD (BD biosciences) and incubated for 15 minutes in the dark at room temperature. Subsequently, 2004 of Annexin V binding buffer (BD Biosciences) was added to the cell suspension and cells analyzed by flow cytometry using BD biosciences LSRII machine.

[2] = system: NF-κB activity in BC3NFRen-luc#3 cells; experiment: NF-κB luciferase reporter assay; format: cell-based, human; conditions: as early as 6 hours post-treatment
Excerpt: Exponentially growing BC3-derived reporter cell lines (BC3NFκB-luc#6 or BC3NFRen-luc#3), and unrelated luciferase expressing U251-pGL3 cells were resuspended in respective RPMI-1640 complete media, and plated in a 96-well tissue culture microplate at 7.5*10^5 cells/mL and 3*10^5 cells/mL, respectively, in the presence or absence of varying concentrations of test compounds. […]

[3] = system: KSHV lytic reactivation in JSC1 PEL cell line; experiment: Lytic reactivation flow assay in rKSHV.219 infected JSC1 cells; format: cell-based; conditions: in a small proportion of cells; 1 or 10 μM, 24 or 48 hours
Experimental: Lytic reactivation low was performed as previously described (Soulier J. et al., Blood 1995;86(4):1276-80). JSC1 B3.1 cells in the exponential phase were seeded at 2*10^5 cells/mL and treated with 1 or 10 μM 6-ETI for 24 or 48 hours, or 20 ng/mL lytic inducer TPA for 48 hours.

[4] = 200 mg/kg for 9 days; cited from earlier work
[5] = system: p65/p50 binding to the NF-κB response element in BC3 PEL cell line; experiment: EMSA of NF-κB binding in BC3 cells; format: cell-based, human
Experimental: BC3 or LCL9001 cells were plated at 5*10^5 cells/ml, and treated with the hit compounds at 25 μM or with NSC39368 at 5, 10, 25 and 50 μM for 24 hours. Nuclear extracts were obtained as previously described (Keller S. A. et al., Blood. 2000 96(7):2537-42), and electrophoretic mobility shift assays (EMSAs) were performed using an NF-κB-specific oligonucleotide probe.

## CCSc1ncnc2c1ncn2[C@@H]1O[C@H](CO)C(O)[C@@H]1O (stereo partly drawn) [Compound 6-ETI, 6-ethylthioinosine]
[1]; 200 mg/kg/day i.p. for 9 days
  tumor burden (bioluminescent signal): significant reduction in tumor burden
  weight loss: without any weight loss
[1]; 200 mg/kg/day, P<0.005
  overall survival: significantly prolonged
KSHV+ PEL cell lines; Homo sapiens, 48 h, read-out: LC50
  CC50: 30 to 435 nM
KSHV+ PEL cell lines; KSHV- versus KSHV+ cell lines
  average fold-difference in sensitivity: ~275 X
KSHV+ PEL cell lines; PEL cell lines
  LC95: ~1000 nM
BC3 cells
  proportion of dead cells (Annexin V/7-AAD): higher proportion of dead cells
[2]
  NF-κB reporter activity: inhibited NF-κB activity
[3]
  lytic reactivation: induction of lytic reactivation
[4]
  reported toxicities: no reported toxicities
[5]; BC3, 24 hours
  inhibition of active heterodimer p65/p50 binding to the NF-κB response element: effectively inhibited
[5]; PEL cells
  doses effective in inhibiting NF-κB in PELs: 10 to 50 µM
